How the values were obtained:
[1] = tested on: CCI rats, mechanical hypersensitivity; experiment: CCI model of neuropathic pain, mechanical sensitivity (automatized von Frey test); assay type: in vivo, rat
Procedure: The CCI model of neuropathic pain allowed the evaluation of the effect RGM8-51 on cold, heat and mechanical sensitivity, as assayed by the acetone test, the Hargreaves test, and the automatized von Frey test, respectively. RGM8-51 was applied either locally (i.pl.; 10 µg) in the affected paw or systemically (intraperitoneally, i.p., 10 and 30 mg/kg) and the effect evaluated before (Baseline) and after CCI surgery. The nocifensive response after administration of RGM8-51 was compared with that of vehicle, while non-operated animals and the uninjured (contralateral) hind paw in CCI animals were used as controls.
Adult male Sprague-Dawley rats (weighing 200–220 g/6–8 weeks old) were used in these experiments. All experimental procedures were conducted according to the animal welfare guidelines of the European Community (European Directive 2010/63/UE) to minimize animal suffering and were approved by Universidad Complutense de Madrid and Comunidad de Madrid ethical committees on animal experimentation (PROEX 207.8/21). […]
For behavioral testing, rats were placed in individual methacrylate boxes with a wire mesh floor, and after a period of 15 min acclimatization, the cold, heat and mechanical sensitivity of the ipsilateral and contralateral paws was determined. Cold sensitivity was assessed with the acetone test. In total, 100 µL acetone were locally applied to the plantar surface of the hind paw and the duration of the subsequent nocifensive response (licking, brushing, and flinching of the paw) was determined during 60 s. Acetone application and assessment were repeated 2 times with a 5 min interval and the sum of the two values was recorded. Heat sensitivity was determined with the Hargreaves test, which uses infrared light as a heat source, with a Hargreaves apparatus (Serie 8, Model 336, IITC Life Science, Woodland Hills, CA USA). The light beam was directed to the plantar surface of the hind paw and the time from the beginning of irradiation to the appearance of first paw withdrawal movement was measured (paw withdrawal latency). […]

DRG sensory neurons = experiment: Current-clamp, membrane resting potential of DRG sensory neurons; assay type: cell-based, rat; conditions: 10 μM
Procedure: In order to test if compound RGM8-51 could affect the membrane resting potential (MRP) of DRG sensory neurons, we also measured MRP of sensory neurons in the current-clamp mode of patch-clamp.
Changes in membrane potential were studied in neonatal DRGs isolated from 3–5 days-old Wistar rats. After isolation, DRGs were digested first using collagenase type IA (0.25% w/v) in DMEM GlutaMax with penicillin/streptomycin (P/S) solution (1% v/v) for 1 h (37 °C, 5% CO2, ThermoScientific incubator) and secondly by mechanical dissociation. Single cell suspension was passed through a […] cell strainer and washed with DMEM GlutaMax with FBS (10%v/v) and P/S solution (1% v/v). […]
For current-clamp recordings from rat DRG neurons the intracellular pipette solution contained (in mM): 4 NaCl, 126 K gluconate, 0.02 CaCl2, 1 MgSO4, 5 HEPES, 15 glucose, 3 ATP, 0.1 GTP and 5 EGTA, pH 7.2 with KOH and the extracellular solution contained (in mM): 140 NaCl, 4 KCl, 2 CaCl2, 2 MgCl2, 10 HEPES, 5 glucose and 20 mannitol, pH 7.4 with NaOH. The membrane potential was measured in the absence and the presence of compound RGM8-51 at 10 μM in a time interval of 1 min.
Data analysis: For the whole-cell patch-clamp experiments, results are expressed as the percentage of remaining activation of the TRPM8 channel. […] All data are expressed as the mean ± standard error of the mean (SEM) (n = 5–8). […]

In the case of `C[C@@H]1C(=O)N(C[C@H](Cc2ccccc2)N(Cc2ccccc2)Cc2ccccc2)[C@]1(Cc1ccccc1)C(=O)OC(C)(C)C` [RGM8-51, 4(S)-Benzyl-3S-methyl-4-(tert-butoxy)carbonyl-1-[(2′S-dibenzylamino-3′-phenyl)prop-1′-yl]-2-oxoazetidine], the “mechanical sensitivity in the absence of neuropathy” value ([1]; baseline, non-operated) is reported as “could not be observed”, the “mechanical hypersensitivity (paw withdrawal threshold) in CCI rats” value ([1]; i.p. 10 and 30 mg/kg) is reported as “dose-dependently reverted paw withdrawal thresholds” and the “mechanical hypersensitivity (paw withdrawal threshold) in CCI rats” value ([1]; local (i.pl.) 10 µg) is reported as “effect also being produced”. The “effect on membrane resting potential (MRP)” value (DRG sensory neurons) was “did not alter the MRP”.

Reference: article PMC8910920 (International Journal of Molecular Sciences, 2022)
